Where “and” joins values, the source holds several entries; their conditions need not be identical. Equal values may be shown once. Inconclusive results are not listed.
System: BDF1 mice, M5076 sarcoma s.c., survival/tumor T/C
Test: NCI In Vivo Anticancer Drug Screen. Data for tumor model Sarcoma M5076 (subcutaneous) in B6D2F1 (BDF1) mice
Experimental: The antitumor activity of compounds was measured in mice bearing transplantable tumors. Survival or tumor size were measured and the results are expressed as the measurement made in the treated group (T) divided by the measurement made in the vehicle treated control group (C). The tumor model used in this assay is Sarcoma M5076 (subcutaneous) in B6D2F1 (BDF1) mice

[1] = endpoint: median survival time, dose: 50.0 mg/kg/injection, schedule: Q01DX009 (ip), vehicle: saline with Tween-80, higher = longer survival
[2] = endpoint: median survival time, dose: 100.0 mg/kg/injection, schedule: Q01DX009 (ip), vehicle: saline with Tween-80, higher = longer survival
[3] = endpoint: median tumor weight (est.), dose: 50.0 mg/kg/injection, schedule: Q01DX009 (ip), vehicle: saline with Tween-80, higher = larger tumour
[4] = endpoint: median tumor weight (est.), dose: 100.0 mg/kg/injection, schedule: Q01DX009 (ip), vehicle: saline with Tween-80, higher = larger tumour

`O=c1[nH]c(=O)n(C2CC(O)C(CO)O2)cc1C(F)(F)F` (configuration not stated) was tested, and the T/C (endpoint: mean tumor weight, dose: 37.5 mg/kg/injection, schedule: Q02DX011 (ip), vehicle: saline, higher = larger tumour) was 87 % of control, the T/C (endpoint: mean tumor weight, dose: 75.0 mg/kg/injection, schedule: Q02DX011 (ip), vehicle: saline, higher = larger tumour) was 24 % of control and the T/C (endpoint: mean tumor weight, dose: 150.0 mg/kg/injection, schedule: Q02DX011 (ip), vehicle: saline, higher = larger tumour) was 6 % of control. For the same compound, the T/C (endpoint: median tumor weight (est.), dose: 37.5 mg/kg/injection, schedule: Q02DX011 (ip), vehicle: saline, higher = larger tumour) was 70 % of control and 90 % of control and the T/C (endpoint: median tumor weight (est.), dose: 150.0 mg/kg/injection, schedule: Q02DX011 (ip), vehicle: saline, higher = larger tumour) was 4 % of control.
With `COc1cc(NS(C)(=O)=O)ccc1Nc1c2ccccc2nc2ccccc12` the T/C (endpoint: mean tumor weight, dose: 1.88 mg/kg/injection, schedule: Q02DX011 (ip), vehicle: clinical formulation, higher = larger tumour) was 68 % of control, the T/C (endpoint: mean tumor weight, dose: 3.75 mg/kg/injection, schedule: Q02DX011 (ip), vehicle: clinical formulation, higher = larger tumour) was 31 % of control and the T/C (endpoint: median tumor weight (est.), dose: 1.88 mg/kg/injection, schedule: Q02DX011 (ip), vehicle: clinical formulation, higher = larger tumour) was 79 % of control. For the same compound, the T/C (endpoint: median tumor weight (est.), dose: 3.75 mg/kg/injection, schedule: Q02DX011 (ip), vehicle: clinical formulation, higher = larger tumour) was 42 % of control.
With `Cn1c2c(c(=O)n(C)c1=O)CS(=O)c1ccccc1N2` (configuration not stated) the T/C [1] was 103 % of control, the T/C [2] was 106 % of control and the T/C (endpoint: median survival time, dose: 200.0 mg/kg/injection, schedule: Q01DX009 (ip), vehicle: saline with Tween-80, higher = longer survival) was 109 % of control. The T/C [3] was 65 % of control, the T/C [4] was 61 % of control and the T/C (endpoint: median tumor weight (est.), dose: 200.0 mg/kg/injection, schedule: Q01DX009 (ip), vehicle: saline with Tween-80, higher = larger tumour) was 83 % of control.
For `Cc1ccc(C(=O)N=Nc2c(Cl)c(O)c3ccccc3c2O)cc1`, the T/C (endpoint: median survival time, dose: 12.5 mg/kg/injection, schedule: Q01DX009 (ip), vehicle: saline with Tween-80, higher = longer survival) was 113 % of control, the T/C (endpoint: median survival time, dose: 25.0 mg/kg/injection, schedule: Q01DX009 (ip), vehicle: saline with Tween-80, higher = longer survival) was 110 % of control and the T/C [1] was 89 % of control. For the same compound, the T/C (endpoint: median tumor weight (est.), dose: 12.5 mg/kg/injection, schedule: Q01DX009 (ip), vehicle: saline with Tween-80, higher = larger tumour) was 62 % of control, the T/C (endpoint: median tumor weight (est.), dose: 25.0 mg/kg/injection, schedule: Q01DX009 (ip), vehicle: saline with Tween-80, higher = larger tumour) was 120 % of control and the T/C [3] was 80 % of control. The T/C [4] was 88 % of control.
With `CO[C@H](C(=O)[C@@H](O)[C@@H](C)O)[C@@H]1Cc2cc3cc(OC4CC(OC5CC(O)C(O)C(C)O5)C(O)C(C)O4)c(C)c(O)c3c(O)c2C(=O)[C@H]1OC1CC(OC2CC(OC3CC(C)(O)C(O)C(C)O3)C(O)C(C)O2)C(O)C(C)O1` (some centres not stated) the T/C (endpoint: mean tumor weight, dose: 1.25 micrograms/kg/injection, schedule: Q02DX011 (ip), vehicle: water, higher = larger tumour) was 151 % of control, the T/C (endpoint: mean tumor weight, dose: 5.0 micrograms/kg/injection, schedule: Q02DX011 (ip), vehicle: water, higher = larger tumour) was 168 % of control and the T/C (endpoint: median tumor weight (est.), dose: 0.01 mg/kg/injection, schedule: Q02DX011 (ip), vehicle: water, higher = larger tumour) was 99 % of control. For the same compound, the T/C (endpoint: median tumor weight (est.), dose: 0.05 mg/kg/injection, schedule: Q02DX011 (ip), vehicle: water, higher = larger tumour) was 154 % of control.
In the case of `CC(=O)Nc1ccc(OC(=O)Nc2ccc(C)c(NC(=O)Oc3ccc(NC(C)=O)cc3)c2)cc1`, the T/C [1] was 113 % of control, the T/C [2] was 95 % of control and the T/C [3] was 47 % of control. For the same compound, the T/C [4] was 187 % of control.
For `O=C1N=C(Oc2ccccc2)SC1=O`, the T/C (endpoint: median survival time, dose: 50.0 mg/kg/injection, schedule: Q04DX003 (ip), vehicle: saline with Tween-80, higher = longer survival) was 106 % of control.
`O=C(O)CCCc1ccc(N(CCCl)CCCl)cc1` was tested, and the T/C (endpoint: median survival time, dose: 1.5 mg/kg/injection, schedule: Q02DX030 (ip), vehicle: saline with Tween-80, higher = longer survival) was 158 % of control, the T/C (endpoint: median survival time, dose: 3.0 mg/kg/injection, schedule: Q02DX030 (ip), vehicle: saline with Tween-80, higher = longer survival) was 194 % of control and the T/C (endpoint: median survival time, dose: 3.0 mg/kg/injection, schedule: Q04DX006 (ip), vehicle: saline with Tween-80, higher = longer survival) was 100 % of control. The T/C (endpoint: median survival time, dose: 6.0 mg/kg/injection, schedule: Q04DX006 (ip), vehicle: saline with Tween-80, higher = longer survival) was 117 % of control and the T/C (endpoint: median survival time, dose: 12.0 mg/kg/injection, schedule: Q04DX006 (ip), vehicle: saline with Tween-80, higher = longer survival) was 124 % of control.
In the case of `Cc1ncc([N+](=O)[O-])n1CCO`, the T/C (endpoint: median survival time, dose: 750.0 mg/kg/injection, schedule: Q01DX001 (ip), vehicle: saline, higher = longer survival) was 116 % of control, the T/C (endpoint: median survival time, dose: 1000.0 mg/kg/injection, schedule: Q01DX001 (ip), vehicle: saline with Tween-80, higher = longer survival) was 105 % of control and 85 % of control and the T/C (endpoint: median survival time, dose: 1500.0 mg/kg/injection, schedule: Q01DX001 (ip), vehicle: saline, higher = longer survival) was 89 % of control and 90 % of control. The T/C (endpoint: median survival time, dose: 2000.0 mg/kg/injection, schedule: Q01DX001 (ip), vehicle: saline with Tween-80, higher = longer survival) was 91 % of control, the T/C (endpoint: median survival time, dose: 2000.0 mg/kg/injection, schedule: Q01DX001 (ip), vehicle: saline, higher = longer survival) was 87 % of control (2×) and 89 % of control and the T/C (endpoint: median survival time, dose: 2500.0 mg/kg/injection, schedule: Q01DX001 (ip), vehicle: saline with Tween-80, higher = longer survival) was 78 % of control.
